Patent publication US5504191A, “Human cancer inhibitory pentapeptide methyl esters” (priority 1994, dated 1996)

Columns and labels:
OVCAR-3 = assay: Human cancer cell line growth inhibition, Ovarian OVCAR-3; format: cell-based; conditions: Ovarian OVCAR-3, 48 hrs
Description: (§1) Current research in the control of cancer in the United States is coordinated by the National Cancer Institute (NCI). To determine whether a substance has anti-cancer properties, the NCI has established a systematic protocol. […] The protocol, and the established statistical means for analyzing the results obtained by the standardized testing are fully described in the literature. See: Boyd, Dr. Michael R., Principles & Practice of Oncology, PPO Updates, Volume 3, Number 10, October 1989, for an in depth description of the testing protocol; and Paull K. D., "Display and Analysis of Patterns of Differential Activity of Drugs Against Human Tumor Cell Lines; Development of Mean Graph and COMPARE Algorithm" Journal of the National Cancer Institute Reports, Vol. 81, No. 14, Page 1088, Jul. 14, 1989 for a description of the methods of statistical analysis employed to evaluate the test results. Both of these references are incorporated herein by this reference thereto.
(§2) ED50 (P388) and GI50 (HTCL) identify the drug dose which reduces the percent tumor/cell growth to 50%. There is no mathematical difference between ED50 and GI50, both of which are calculated using the same formula. The only difference is historical usage.
(§3) TGI, means "Total Growth Inhibition" and identifies the drug dose needed to yield zero percent growth, i.e. there are just as many cells at the end of the experiment as were present at the beginning. Whether just as many cells were killed as were produced (steady state), or no growth occurred (total inhibition) cannot be distinguished.
(§4) LC50, means "Lethal Concentration 50%", and identifies the drug concentration which reduces to one-half of the cells originally present at the beginning of the experiment.
(§5) Each drug is tested at five (5) doses: 100 - 10 - 1 - 0.1 - 0.01 - μg/ml. Percent Growths are calculated for each dose. The two (or three) doses with growth values above, below, (or near to) 50% growth are used to calculate the ED50 /GI50 values using a linear regression computation. If no dose yields a growth value under 50%, the results are expressed as: ED50 >(highest dose). If no dose yields growth higher than 50% growth, then ED50 <(lowest dose). Similar calculations are performed for the TGI at 0% growth, and at -50% growth for the LC50.
(§6) At the start of each experiment, cells from the in vitro cell cultures are inoculated into the appropriate tubes or microtiter plates. One set of control tubes/plates is immediately counted to determine the number of cells at the start of the experiment. This is the "baseline count" or "Tzero reading". At the end of the experiment (48 hrs later), a second set of control tubes/plates is analyzed to determine the "Control Growth" value. The growth (or death) of cells relative to the initial quantity of cells is used to define the "Percent of Growth."

SF-295 = assay: Human cancer cell line growth inhibition, CNS SF-295; format: cell-based; conditions: CNS SF-295, 48 hrs
Description: as §1, §2, §3, §4, §5, §6

A498 = assay: Human cancer cell line growth inhibition, Renal A498; format: cell-based; conditions: Renal A498, 48 hrs
Description: as §1, §2, §3, §4, §5, §6

NCI-H460 = assay: Human cancer cell line growth inhibition, Lung-NSC NCI-H460; format: cell-based; conditions: Lung-NSC NCI-H460, 48 hrs
Description: as §1, §2, §3, §4, §5, §6

KM20L2 = assay: Human cancer cell line growth inhibition, Colon KM20L2; format: cell-based; conditions: Colon KM20L2, 48 hrs
Description: as §1, §2, §3, §4, §5, §6

SK-MEL-5 = assay: Human cancer cell line growth inhibition, Melanoma SK-MEL-5; format: cell-based; conditions: Melanoma SK-MEL-5, 48 hrs
Description: as §1, §2, §3, §4, §5, §6

PS-388 Mouse Leukemia = assay: PS-388 mouse leukemia cell growth inhibition (ED50); format: cell-based; conditions: Mouse Leukemia PS-388
Protocol: as §2, §5, §6

[1] = system: LOX Human Melanoma Xenograph; assay: Dolastatin 10 in vivo, LOX human melanoma xenograph; conditions: nude mouse
Description: (§7) The synthesis of potentially useful peptides presents one of the most essential and promising approaches to new types of anticancer and immunosuppressant drugs. The Dolastatins, an unprecedented series of linear and cyclic antineoplastic and/or cytostatic peptides isolated from Indian Ocean sea hare Dolabella auricularia represent excellent leads for synthetic modification. The very productive sea hare Dolabella auricularia has produced a number of structurally distinct peptides with excellent antineoplastic activity. Presently Dolastatin 10, a linear pentapeptide, represents the most important member and is a potentially useful antineoplastic agent. […] Recently the total synthesis and absolute configuration of this structurally unique and biologically active peptide was discovered.

Human Mammary Xenograph = assay: Dolastatin 10 in vivo, human mammary xenograph; conditions: nude mouse, 26 μg/kg
Description: as §7

[2] = system: OVCAR-3 Human Ovary Xenograph; assay: Dolastatin 10 in vivo, OVCAR-3 human ovary xenograph; conditions: OVCAR-3 xenograph, nude mouse, 40 μg/kg
Description: as §7

Substance: N^γ,N^γ,N^α --tri--Z--Arg--Val--Dil--Dap--N^ε --Z--Lys--OMe [11b]
- GI-50 (OVCAR-3): > 1 µg/mL
- LC-50 (OVCAR-3): > 1 µg/mL
- TGI (OVCAR-3): > 1 µg/mL
- GI-50 (SF-295): > 1 µg/mL
- LC-50 (SF-295): > 1 µg/mL
- TGI (SF-295): > 1 µg/mL
- GI-50 (A498): > 1 µg/mL
- LC-50 (A498): > 1 µg/mL
- TGI (A498): > 1 µg/mL
- GI-50 (NCI-H460): > 1 µg/mL
- LC-50 (NCI-H460): > 1 µg/mL
- TGI (NCI-H460): > 1 µg/mL
- GI-50 (KM20L2): > 1 µg/mL
- LC-50 (KM20L2): > 1 µg/mL
- TGI (KM20L2): > 1 µg/mL
- GI-50 (SK-MEL-5): > 1 µg/mL
- LC-50 (SK-MEL-5): > 1 µg/mL
- TGI (SK-MEL-5): > 1 µg/mL
- ED-50 (PS-388 Mouse Leukemia): 0.513 µg/mL

Substance: Dov--Val--Dil--Dap--N^ε --Z--Lys--OMe [10a]
- GI-50 (OVCAR-3): 0.0069 µg/mL
- LC-50 (OVCAR-3): > 0.01 µg/mL
- TGI (OVCAR-3): > 0.01 µg/mL
- GI-50 (SF-295): > 0.01 µg/mL
- LC-50 (SF-295): > 0.01 µg/mL
- TGI (SF-295): > 0.01 µg/mL
- GI-50 (A498): > 0.01 µg/mL
- LC-50 (A498): > 0.01 µg/mL
- TGI (A498): > 0.01 µg/mL
- GI-50 (NCI-H460): > 0.01 µg/mL
- LC-50 (NCI-H460): > 0.01 µg/mL
- TGI (NCI-H460): > 0.01 µg/mL
- GI-50 (KM20L2): > 0.01 µg/mL
- LC-50 (KM20L2): > 0.01 µg/mL
- TGI (KM20L2): > 0.01 µg/mL
- GI-50 (SK-MEL-5): 0.003 µg/mL
- LC-50 (SK-MEL-5): > 0.01 µg/mL
- TGI (SK-MEL-5): > 0.01 µg/mL
- ED-50 (PS-388 Mouse Leukemia): > 0.01 µg/mL

Substance: N^γ,N^γ,N^α --tri--Z--Arg--Val--Dil--Dap--Met--OMe [11c]
- GI-50 (OVCAR-3): 0.074 µg/mL
- LC-50 (OVCAR-3): > 1 µg/mL
- TGI (OVCAR-3): 0.74 µg/mL
- GI-50 (SF-295): 0.13 µg/mL
- LC-50 (SF-295): > 1 µg/mL
- TGI (SF-295): > 1 µg/mL
- GI-50 (A498): 0.6 µg/mL
- LC-50 (A498): > 1 µg/mL
- TGI (A498): > 1 µg/mL
- GI-50 (NCI-H460): 0.25 µg/mL
- LC-50 (NCI-H460): > 1 µg/mL
- TGI (NCI-H460): 0.62 µg/mL
- GI-50 (KM20L2): 0.28 µg/mL
- LC-50 (KM20L2): > 1 µg/mL
- TGI (KM20L2): > 1 µg/mL
- GI-50 (SK-MEL-5): 0.38 µg/mL
- LC-50 (SK-MEL-5): > 1 µg/mL
- TGI (SK-MEL-5): > 1 µg/mL
- ED-50 (PS-388 Mouse Leukemia): 0.329 µg/mL

Substance: Dov--Val--Dil--Dap--His--OMe [10b]
- GI-50 (OVCAR-3): 0.00071 µg/mL
- LC-50 (OVCAR-3): > 0.01 µg/mL
- TGI (OVCAR-3): > 0.01 µg/mL
- GI-50 (SF-295): > 0.01 µg/mL
- LC-50 (SF-295): > 0.01 µg/mL
- TGI (SF-295): > 0.01 µg/mL
- GI-50 (A498): > 0.01 µg/mL
- LC-50 (A498): > 0.01 µg/mL
- TGI (A498): > 0.01 µg/mL
- GI-50 (NCI-H460): > 0.01 µg/mL
- LC-50 (NCI-H460): > 0.01 µg/mL
- TGI (NCI-H460): > 0.01 µg/mL
- GI-50 (KM20L2): 0.00099 µg/mL
- LC-50 (KM20L2): > 0.01 µg/mL
- TGI (KM20L2): > 0.01 µg/mL
- GI-50 (SK-MEL-5): 0.0008 µg/mL
- LC-50 (SK-MEL-5): > 0.01 µg/mL
- TGI (SK-MEL-5): > 0.01 µg/mL
- ED-50 (PS-388 Mouse Leukemia): > 0.01 µg/mL

Substance: Dolastatin 10
- T/C ([1]; 3.25 μg/kg): 170
- cures ([1]; 3.25 μg/kg): 17%
- cures ([1]; 6.5 μg/kg): 33%
- cures ([1]; 13 μg/kg): 50%
- cures ([1]; 26 μg/kg): 67%
- T/C ([1]; 52 μg/kg): toxic
- T/C (Human Mammary Xenograph): Toxic
- T/C [2]: 300

Substance: N^α,N^ε --di--Z--Lys--Val--Dil--Dap--His--OMe [11a]
- GI-50 (OVCAR-3): 0.12 µg/mL
- LC-50 (OVCAR-3): > 1 µg/mL
- TGI (OVCAR-3): 0.67 µg/mL
- GI-50 (SF-295): 0.67 µg/mL
- LC-50 (SF-295): > 1 µg/mL
- TGI (SF-295): > 1 µg/mL
- GI-50 (A498): > 1 µg/mL
- LC-50 (A498): > 1 µg/mL
- TGI (A498): > 1 µg/mL
- GI-50 (NCI-H460): 0.27 µg/mL
- LC-50 (NCI-H460): > 1 µg/mL
- TGI (NCI-H460): > 1 µg/mL
- GI-50 (KM20L2): 0.29 µg/mL
- LC-50 (KM20L2): > 1 µg/mL
- TGI (KM20L2): > 1 µg/mL
- GI-50 (SK-MEL-5): 0.08 µg/mL
- LC-50 (SK-MEL-5): > 1 µg/mL
- TGI (SK-MEL-5): > 1 µg/mL
- ED-50 (PS-388 Mouse Leukemia): > 1 µg/mL
